Data reported in US20180360964A1, “PHARMACEUTICAL COMPOSITION AND A METHOD FOR PRODUCING THEREOF” (priority 2017, published 2018).
One block for each compound: values may come before it.

Legend:
[1] = Interaction efficiency of drugs with apatite-based matrix (HPLC); format: physicochemical; design: concentration or dose not given beside the values; settings: for Interaction efficiency (%) of each drug with apatite-based matrix: Table 1, mean±SD, triplicate
Method: Apatite-based matrix as prepared above was allowed to interact with three types of drugs including cyclophosphamide (Cyp), methotrexate (Mtx) and 5-fluorouracil (5-FU) to form complexes. The complexes were then centrifuged at 13,000 rpm for 15 min and supernatant was discarded without disturbing the pellet. 100 μL of media was added to pellet to form a suspension and the suspension was used to perform high performance liquid chromatography (HPLC) analysis to estimate the concentration of drugs that could be adsorbed to the apatite-based matrix and also to evaluate the interaction efficiency of drugs with apatite-based matrix. The concentration of the drugs present in the supernatant was calculated from the peak area, using the standard curves. Data were represented as interaction efficiency (%) of drugs with apatite-based matrix, calculated using the following formula: […]
Where [X]free drug and [X]CA-drug are the concentrations of free drug and drug-loaded apatite-based matrix in the supernatant calculated form the standard curves and [X]initial is the total concentration of drugs used to perform HPLC or the total concentration initially mixed for preparation of apatite-drug formulations. Each experiment was done in triplicate and shown as mean±SD.
(7) Ca^2+ and Sr^2+ Effects of Ca^2+ and Sr^2+ on apatite-based matrix formation were analysed by adding exogenous CaCl2 and SrCl2 in apatite-based matrix fabrication respectively, while keeping other salts being constant. The size of the apatite-based matrix formed with exogenous CaCl2 and SrCl2 were measured, followed by evaluation on the interaction efficiency (%) of apatite-based matrix with drugs which is indicated in Table 2.

[2] = Cellular uptake of Dox-loaded CA NPs and CMCA NPs; format: cell-based
From the text: Further, the interaction between CMCA NP and the drug i.e. doxorubicin (denoted briefly as Dox) was studied by comparing the size and binding affinity of CA NP and CMCA NP that were loaded with Dox. The positively charged DOX might bind electrostatically with negatively charged domains (rich in bicarbonate, phosphate or citrate) on CMCA NP and CA NP, causing the net charge of the DOX-loaded CMCA NPs and CA NPs more electropositive than that of the free NPs, as shown in FIGS. 28 (b) and (d). […] In addition, the evaluation on cellular uptake of Dox-loaded CA NPs and CMCA NPs was performed after 1 hour and 4 hours of treatment.

[3] = test system: MCF7 cell line; test: Time-dependent cellular uptake by HPLC; format: cell-based
Method: HPLC was performed to determine time-dependent cellular uptake (%) of pharmaceutical composition and also drug-loaded unmodified apatite-based matrix in MCF7 cell line. Apatite-based matrix was formulated with different Ca^2+ concentrations (7 mM, 8 mM and 9 mM) and 20 uM of drug. Free drug (20 uM) was used as control.

[4] = Concentration of detected drug accumulated in tumour after intravenous delivery; format: in vivo, mouse; settings: gemcitabine accumulated in tumour, 4T1-induced breast tumour mice
Method: 4T1 cells were inoculated subcutaneously on the mammary pad of mice. […] The injections were intravenously administered twice within an interval of 3 days to a 4T1 cancer cells-induced syngeneic mouse model of breast cancer. Measurements on tumour volume at day 8, 10, 12, 14, 16, 18, 20 and 22 were taken. The concentration of detected drug in tumour were also measured, followed by observation on bio-distribution of drugs in each organ. Six mice per group were used and data were represented as mean±SD of tumour volume.

- Interaction efficiency (%) of each drug with apatite-based matrix [1]: 0%
- Interaction efficiency (%) of each drug with apatite-based matrix ([1]; listed as 5-fluorouracil (5-FU)): did not show any affinity
- Interaction efficiency (%) of each drug with the apatite-based matrix ([1]; matrix formed with CaCl2): 0%
- Interaction efficiency (%) of each drug with the apatite-based matrix ([1]; matrix formed with SrCl2): 1.21 ± 0.56%
Structure (SMILES): O=c1[nH]cc(F)c(=O)[nH]1 [5-FU, 5-fluorouracil]

Structure (SMILES): O=P1(N(CCCl)CCCl)NCCCO1 (stereo not drawn) [Cyp, cyclophosphamide]
- Interaction efficiency (%) of each drug with apatite-based matrix [1]: 13.10 ± 5.47%
- Interaction efficiency (%) of each drug with the apatite-based matrix ([1]; matrix formed with CaCl2): 13.10 ± 5.47%
- Interaction efficiency (%) of each drug with the apatite-based matrix ([1]; matrix formed with SrCl2): 11.19 ± 8.16%

Structure (SMILES): COc1cccc2c1C(=O)c1c(O)c3c(c(O)c1C2=O)C[C@@](O)(C(=O)CO)C[C@@H]3O[C@H]1C[C@H](N)[C@H](O)[C@H](C)O1 [DOX, doxorubicin]
- % Cellular uptake 1 hour of treatment ([2]; DOX 1 μM): 22.4% ± 1.73
- % Cellular uptake 4 hours of treatment ([2]; DOX 1 μM): 31.71% ± 5.92
- % Cellular uptake 1 hour of treatment ([2]; DOX 5 μM): 24.75% ± 0.14
- % Cellular uptake 4 hours of treatment ([2]; DOX 5 μM): 32.07% ± 0.82

Structure (SMILES): CC(C)(C#N)c1cc(Cn2cncn2)cc(C(C)(C)C#N)c1 [Free anastrozole, anastrozole]
- cellular uptake (%) ([3]; anastrozole 20 uM, 1 h): 18.5% ± 2.4
- cellular uptake (%) ([3]; anastrozole 20 uM, 4 h): 47.75% ± 2.3
- cellular uptake (%) ([3]; anastrozole 20 uM, 24 h): 89.5% ± 3

- Detected Drug Concentration (ng/ml) [4]: 27,03333 ng/ml
Structure (SMILES): Nc1ccn([C@@H]2O[C@H](CO)[C@@H](O)C2(F)F)c(=O)n1 [Free gemcitabine, gemcitabine]
- cellular uptake (%) ([3]; gemcitabine 20 uM, 1 h): 30.5% ± 1.2
- cellular uptake (%) ([3]; gemcitabine 20 uM, 4 h): 50.75% ± 2.3
- cellular uptake (%) ([3]; gemcitabine 20 uM, 24 h): 100%

- Interaction efficiency (%) of each drug with apatite-based matrix [1]: 1.73 ± 0.85%
- Interaction efficiency (%) of each drug with the apatite-based matrix ([1]; matrix formed with CaCl2): 1.73 ± 0.85%
- Interaction efficiency (%) of each drug with the apatite-based matrix ([1]; matrix formed with SrCl2): 27.76 ± 5.62%
Structure (SMILES): CN(Cc1cnc2nc(N)nc(N)c2n1)c1ccc(C(=O)N[C@@H](CCC(=O)O)C(=O)O)cc1 [Mtx, methotrexate]
